# Test results published in patent US8003649B2 (AstraZeneca AB, priority 2007, dated 2011).
# Target: T1, Androgen Receptor (AR) (Homo sapiens, UniProt P10275, T878A)
# T1 construct: cell based immuno-fluorescence assay using the LNCaP prostate epithelial cell line; endogenous in cells; host or cells: LNCaP clone FGC (ATCC CRL-1740)
# T1 sequence (P10275 1-920 T878A): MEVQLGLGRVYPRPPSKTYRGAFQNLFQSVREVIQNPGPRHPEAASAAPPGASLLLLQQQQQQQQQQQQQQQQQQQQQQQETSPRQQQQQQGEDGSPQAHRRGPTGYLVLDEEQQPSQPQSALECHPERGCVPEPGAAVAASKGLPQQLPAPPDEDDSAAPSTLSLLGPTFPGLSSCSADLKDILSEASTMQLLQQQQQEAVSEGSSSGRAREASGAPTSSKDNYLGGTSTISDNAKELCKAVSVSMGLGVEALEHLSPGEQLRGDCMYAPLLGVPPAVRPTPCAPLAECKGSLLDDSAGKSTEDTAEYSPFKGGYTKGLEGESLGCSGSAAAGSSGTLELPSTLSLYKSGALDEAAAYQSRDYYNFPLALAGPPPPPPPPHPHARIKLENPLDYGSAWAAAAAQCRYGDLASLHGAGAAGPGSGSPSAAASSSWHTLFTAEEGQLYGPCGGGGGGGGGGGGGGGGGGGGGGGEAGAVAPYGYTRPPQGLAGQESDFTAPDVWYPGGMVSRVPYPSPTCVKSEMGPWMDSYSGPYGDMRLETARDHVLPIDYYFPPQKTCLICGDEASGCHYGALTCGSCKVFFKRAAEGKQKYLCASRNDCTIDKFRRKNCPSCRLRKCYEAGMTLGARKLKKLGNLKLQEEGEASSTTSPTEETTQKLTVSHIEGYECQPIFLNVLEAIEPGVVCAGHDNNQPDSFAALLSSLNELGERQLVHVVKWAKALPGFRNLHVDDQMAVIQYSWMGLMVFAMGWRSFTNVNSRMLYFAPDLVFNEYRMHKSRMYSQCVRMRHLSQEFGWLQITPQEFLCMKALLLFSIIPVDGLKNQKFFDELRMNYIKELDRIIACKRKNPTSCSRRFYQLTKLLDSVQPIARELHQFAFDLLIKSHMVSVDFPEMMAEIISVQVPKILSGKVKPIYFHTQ
# Assay: LNCaP Androgen Receptor Down-regulation Cell Assay (immunofluorescence end point)
# Type: cell-based
# Conditions: LNCaP prostate carcinoma cells, compound incubation 20-22 hours, 50% reduction of the AR signal; read-out: Androgen Receptor Down-regulation Assay (a) IC50/μM
# Procedure, shortened: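 LNCaP cells in medium with 5% charcoal-stripped FBS were plated overnight, then treated with a compound dilution series for 20-22 h at 37° C. After fixation, permeabilisation and immunostaining, AR-associated green fluorescence was quantified by laser-scanning microplate cytometry; AR down-regulation expressed as IC50 from fitted dose-response curves.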
row,Structure (SMILES),DC50 [µM]
1,"C[C@@H]1CN(Cc2ccccc2)[C@@H](C)CN1c1ccc2nnc(C(F)(F)F)n2n1 [Example 216, 6-[(2R,5S)-4-benzyl-2,5-dimethylpiperazin-1-yl]-3-(trifluoromethyl)[1,2,4]triazolo[4,3-b]pyridazine]",6.8
2,CC1CN(c2ccc3nnc(C(F)(F)F)n3n2)C(C)CN1Cc1ccc(C#N)cc1 (centres unmarked) [Example 218],> 7.3
3,"C[C@@H]1CN(c2ccc3nnc(C(F)(F)F)n3n2)[C@@H](C)CN1Cc1cccnc1 [Example 223, 6-[(2S,5R)-2,5-dimethyl-4-(pyridin-3-ylmethyl)piperazin-1-yl]-3-(trifluoromethyl)[1,2,4]triazolo[4,3-b]pyridazine]",4.7
4,N#Cc1ccc(CN2CCN(c3ccc4nnc(C(F)F)n4n3)CC2)cc1 [Example 237],5.3
5,N#Cc1cccc(CN2CCN(c3ccc4nnc(C(F)F)n4n3)CC2)c1 [Example 238],5
6,CC(F)(F)c1nnc2ccc(N3CCN(Cc4cccc(C#N)c4)CC3)nn12 [Example 242],7.4
7,CC(F)(F)c1nnc2ccc(N3CCN(Cc4cccc(F)c4)CC3)nn12 [Example 243],3.7
8,CCC(F)(F)c1nnc2ccc(N3CCN(Cc4cccc(C#N)c4)CC3)nn12 [Example 246],23
9,Fc1ccc(CN2CCN(c3ccc4nnc(C(F)F)n4n3)CC2)c(F)c1 [Example 249],6.3
10,Fc1ccc(CN2CCN(c3ccc4nnc(C(F)F)n4n3)CC2)cc1F [Example 250],4.9
11,Fc1cc(F)cc(CN2CCN(c3ccc4nnc(C(F)F)n4n3)CC2)c1 [Example 251],9.3
12,Fc1cccc(F)c1CN1CCN(c2ccc3nnc(C(F)F)n3n2)CC1 [Example 252],8.9
13,COc1ccc(CN2CCN(c3ccc4nnc(C(F)F)n4n3)CC2)c(F)c1 [Example 253],3.7
14,Fc1cccc(CN2CCN(c3ccc4nnc(C(F)F)n4n3)CC2)c1F [Example 256],7.4
15,COc1cc(CN2CCN(c3ccc4nnc(C(F)F)n4n3)CC2)ccc1F [Example 257],9
16,COc1ccc(F)c(CN2CCN(c3ccc4nnc(C(F)F)n4n3)CC2)c1 [Example 258],6.4

# The remaining compounds from weak to strong by DC50, led by results:
row,DC50 [µM],Structure (SMILES)
1,3.7,"C[C@@H]1CN(Cc2cccnc2)[C@@H](C)CN1c1ccc2nnc(C(F)(F)F)n2n1 [Example 217, 6-[(2R,5S)-2,5-dimethyl-4-(pyridin-3-ylmethyl)piperazin-1-yl]-3-(trifluoromethyl)[1,2,4]triazolo[4,3-b]pyridazine]"
2,3.6,CC1CN(c2ccc3nnc(C(F)(F)F)n3n2)C(C)CN1Cc1cc(F)cc(F)c1 (centres unmarked) [Example 220]
3,3.6,FC(F)(F)c1nnc2ccc(N3CCN(CCc4ccccc4Cl)CC3)nn12 [Example 232]
4,3.5,CC1CN(c2ccc3nnc(C(F)(F)F)n3n2)C(C)CN1Cc1ccc(F)c(F)c1 (centres unmarked) [Example 219]
5,2.6,CC1CN(c2ccc3nnc(C(F)(F)F)n3n2)C(C)CN1Cc1ccc(F)c(C#N)c1 (centres unmarked) [Example 222]
6,2.1,Fc1ccc(CCN2CCN(c3ccc4nnc(C(F)(F)F)n4n3)CC2)cc1 [Example 230]
7,2.1,FC(F)(F)c1nnc2ccc(N3CCN(CCc4ccc(Cl)cc4)CC3)nn12 [Example 231]
8,2,Fc1cccc(CCN2CCN(c3ccc4nnc(C(F)(F)F)n4n3)CC2)c1 [Example 234]
9,1.9,"Fc1ccccc1CCN1CCN(c2ccc3nnc(C(F)(F)F)n3n2)CC1 [Example 229, 6-[4-[2-(2-fluorophenyl)ethyl]piperazin-1-yl]-3-(trifluoromethyl)[1,2,4]triazolo[4,3-b]pyridazine]"
10,1.9,N#Cc1ccc(CCN2CCN(c3ccc4nnc(C(F)(F)F)n4n3)CC2)cc1 [Example 235]
11,1.8,FC(F)c1nnc2ccc(N3CCN(Cc4cccc(C(F)(F)F)c4)CC3)nn12 [Example 255]
12,1.7,FC(F)c1nnc2ccc(N3CCN(Cc4cccc(Cl)c4)CC3)nn12 [Example 248]
13,1.5,FC(F)(F)c1nnc2ccc(N3CCN(CCc4cccc(Cl)c4)CC3)nn12 [Example 233]
